{"source": "patent US20110039763A1", "about": "“TARGETED ANTIMICROBIAL MOIETIES” (C3 JIAN, INC., priority 2009, published 2011)", "note": "“Also recorded” adds a separate entry of the source."}
{"system": "microorganisms", "experiment": "Targeting peptide binding to target microorganisms (Tables 3, 10, 12)", "conditions": "microorganism(s) the targeting peptide binds; binding in aqueous buffers that varied with peptide solubility, preferably 1x PBS"}
{"substance": "1T-297 (RSLRLNNALTKLPKLWYNRIKEAFYAYNDYDK; Peptide with targeting and/or antimicrobial activity)", "Target(s)": "A. naeslundii; also recorded: F. nucleatum; also recorded: T. denticola; also recorded: S. mitis; also recorded: S. mutans; also recorded: S. oralis"}
{"substance": "1T-252 (MKKNLKRFYALVLGFIIGCLFVSILIFIGY; Peptide with targeting and/or antimicrobial activity)", "Target(s)": "F. nucleatum; also recorded: S. sanguinis"}
{"substance": "1T-250 (LVQGDTILIENHVGTPVKDDGKDCLIIREADVLAVVND; Peptide with targeting and/or antimicrobial activity)", "Target(s)": "S. mitis; also recorded: S. mutans; also recorded: S. oralis"}
{"substance": "PF-039 (MLEEKNKSL; Peptide with targeting and/or antimicrobial activity)", "Target(s)": "P. mirabilis; also recorded: C. jeikeium"}
{"substance": "1T-282 (ISLVFPAYT; Peptide with targeting and/or antimicrobial activity)", "Target(s)": "F. nucleatum; also recorded: P. gingivalis; also recorded: S. gordonii; also recorded: S. mitis; also recorded: S. mutans; also recorded: S. oralis; also recorded: S. salivarious; also recorded: S. sanguinis"}
{"system": "microorganisms", "experiment": "Targeting peptide binding to target microorganisms (Tables 3, 10, 12)", "conditions": "microorganism(s) the targeting peptide binds; binding in aqueous buffers varied with peptide solubility, preferably 1x PBS"}
{"substance": "PF-491 (IHQYSSKPDIVGQEAKTVQQINS; Peptide with targeting and/or antimicrobial activity)", "Target(s)": "S. mutans; also recorded: E. coli"}
{"substance": "PF-504 (ILSVELSTKTSASGS; Peptide with targeting and/or antimicrobial activity)", "Target(s)": "S. mutans; also recorded: E. coli"}
{"substance": "PF-438 (QPYFQNQFKKITGYTPLQYRKEKR; Peptide with targeting and/or antimicrobial activity)", "Target(s)": "S. epidermidis; also recorded: E. coli; also recorded: S. pneumoniae; also recorded: C. jeikeium; also recorded: C. jejuni"}
{"substance": "PF-101 (DPVPERQEQACACHRTAKPGK; Peptide with targeting and/or antimicrobial activity)", "Target(s)": "S. mutans"}
{"substance": "PF-671 (TVSAFRTVH; Peptide with targeting and/or antimicrobial activity)", "Target(s)": "S. mutans; also recorded: E. coli"}
{"substance": "PF-C063 (SHFRKGD; Peptide with targeting and/or antimicrobial activity)", "Target(s)": "A. naeslundii; also recorded: F. nucleatum; also recorded: S. mutans"}
{"substance": "PF-267 (SDDKRTD; Peptide with targeting and/or antimicrobial activity)", "Target(s)": "M. luteus"}
{"substance": "PF-202 (ALNRASLRLALGE; Peptide with targeting and/or antimicrobial activity)", "Target(s)": "S. epidermidis and M. luteus and E. coli and MRSA and E. faecalis and C. jeikeium and C. jejuni"}
{"substance": "PF-104 (ERTAVNDLWI; Peptide with targeting and/or antimicrobial activity)", "Target(s)": "MRSA and C. jeikeium"}
{"substance": "PF-141 (VVRRFQGM; Peptide with targeting and/or antimicrobial activity)", "Target(s)": "S. epidermidis and M. luteus and C. albicans and MRSA and C. jeikeium"}
{"substance": "PF-S007 (VVAGVVLLTALAVGSKRKEKKQIKEIQRLLAATR; Peptide with targeting and/or antimicrobial activity)", "Target(s)": "S. epidermidis and MRSA"}
{"substance": "PF-299 (LATKLKYEKEHKKM; Peptide with targeting and/or antimicrobial activity)", "Target(s)": "B. subtilis"}
{"substance": "PF-783 (FTSEVRGVFTYRVNKAGLITNMRGYWNLDMMTFGNQE; Peptide with targeting and/or antimicrobial activity)", "Target(s)": "Mycobacteria spp."}
{"substance": "PF-C068 (LNLFASI; Peptide with targeting and/or antimicrobial activity)", "Target(s)": "A. naeslundii; also recorded: F. nucleatum; also recorded: S. mutans"}
{"substance": "PF-165 (GPVSVVASLRRGTTVQRHSQNNHNKGKP; Peptide with targeting and/or antimicrobial activity)", "Target(s)": "MRSA and C. jejuni"}
{"substance": "PF-147 (RRPRRRRSGHGQSASAA; Peptide with targeting and/or antimicrobial activity)", "Target(s)": "S. epidermidis and M. luteus and MRSA"}
{"substance": "PF-372 (KKQDKRIEDKYKRMKKGD; Peptide with targeting and/or antimicrobial activity)", "Target(s)": "C. jeikeium; also recorded: C. jejuni"}
{"substance": "PF-486 (MQKEGEEDY; Peptide with targeting and/or antimicrobial activity)", "Target(s)": "S. mutans"}
{"substance": "PF-765 (YLYWEVEHKPIIAKRDAYYAQLRKQKEIEEGA; Peptide with targeting and/or antimicrobial activity)", "Target(s)": "S. epidermidis and M. luteus and E. coli and MRSA and E. faecalis and C. jeikeium"}
{"substance": "PF-777 (PGADGKLAEASAAIARLVRS; Peptide with targeting and/or antimicrobial activity)", "Target(s)": "Mycobacteria spp."}
{"substance": "PF-142 (GIDRGCQAAR; Peptide with targeting and/or antimicrobial activity)", "Target(s)": "S. mutans"}
{"system": "microorganisms", "experiment": "Targeting peptide binding to target microorganisms (Tables 3, 10, 12)", "conditions": "peptide binding in aqueous buffers that varied with peptide solubility; preferably 1x PBS"}
{"substance": "1T-65 (HARAAVGVAELPRGAAVEVELIAAVRP; Peptide with targeting and/or antimicrobial activity)", "Target(s) (microorganism bound by the targeting peptide)": "S. mutans; also recorded: S. aureus; also recorded: S. epidermidis; also recorded: C. jeikeium; also recorded: C. xerosis; also recorded: C. striatum; also recorded: P. aeruginosa"}
{"substance": "1T-100 (LDPLEPRIAPPGDRSHQGAPACHRDPLRGRSARDAER; Peptide with targeting and/or antimicrobial activity)", "Target(s) (microorganism bound by the targeting peptide)": "S. gordonii; also recorded: S. mitis; also recorded: S. mutans"}
{"substance": "1T-21 (YVEEAVRAALKKEARISTEDTPVNLPSFDC; Peptide with targeting and/or antimicrobial activity)", "Target(s) (microorganism bound by the targeting peptide)": "S. mutans; also recorded: P. aeruginosa"}
{"substance": "1T-6 (KFINGVLSQFVLERK; Peptide with targeting and/or antimicrobial activity)", "Target(s) (microorganism bound by the targeting peptide)": "S. mutans"}
{"substance": "1T-62 (GCKGCAQRDPCAEPEPYFRLR; Peptide with targeting and/or antimicrobial activity)", "Target(s) (microorganism bound by the targeting peptide)": "S. epidermidis; also recorded: P. aeruginosa"}
{"substance": "1T-59 (AVGNNLGKDNDSGHRGKKHRKHKHR; Peptide with targeting and/or antimicrobial activity)", "Target(s) (microorganism bound by the targeting peptide)": "S. aureus; also recorded: S. epidermidis; also recorded: P. aeruginosa"}
{"substance": "1T-9 (WAWAESPRCVSTRSNIHALAFRVEVAALT; Peptide with targeting and/or antimicrobial activity)", "Target(s) (microorganism bound by the targeting peptide)": "M. xanthus"}
{"substance": "1T-109 (VTTNVRQGAGS; Peptide with targeting and/or antimicrobial activity)", "Target(s) (microorganism bound by the targeting peptide)": "A. naeslundii; also recorded: S. epidermidis; also recorded: S. gordonii; also recorded: S. mitis; also recorded: S. mutans; also recorded: S. oralis; also recorded: S. salivarious; also recorded: S. sanguinis"}
{"substance": "1T-4 (LDAYGELVGGN; Peptide with targeting and/or antimicrobial activity)", "Target(s) (microorganism bound by the targeting peptide)": "S. gordonii; also recorded: S. sanguinis; also recorded: S. oralis; also recorded: V. atypica; also recorded: L. casei; also recorded: S. mutans"}
{"substance": "1T-35 (EICLTLVFPIRGSYSEAAKFPVPIHIVEDGTVELPK; Peptide with targeting and/or antimicrobial activity)", "Target(s) (microorganism bound by the targeting peptide)": "P. aeruginosa"}
